Data reported in US10111901B2, “Beta-glucan in combination with anti-cancer agents affecting the tumor microenvironment” (Biothera, Inc., priority 2014, dated 2018).

Legend:
M2 macrophages = assay: Flow cytometry of M1/M2-specific markers on M2 macrophages derived from vehicle- or β-glucan-treated whole blood; assay type: cell-based, human
Description: (§1) CD14^+ monocytes from human whole blood were enriched using Ficoll gradient and magnetic bead separation. Enriched monocytes (5×10^5 cells per mL) were then cultured in either M1-polarizing (XVivo 10 media (Lonza Group) supplemented with 5% autologous serum and 100 ng/mL recombinant human granulocyte macrophage colony-stimulating factor (rhGM-CSF) (R&D Systems) or M2-polarizing (XVivo 10 media supplemented with 10% autologous serum and 50 ng/mL recombinant human macrophage colony-stimulating factor (rhM-CSF) (R&D Systems) conditions for 6 days. In experiments performed to evaluate the effect of β-glucan, whole blood was first incubated with vehicle (sodium citrate buffer) or 25 μg/mL soluble β-glucan for 2 hours at 37° C. and then the monocytes were isolated and differentiated. Morphology was checked before macrophages were harvested for phenotypic analysis. Culture medium of the day 6 macrophage culture (MCM) was collected, spun down to remove contaminated cell pellet and then frozen down for subsequent cytokine analysis by ELISA or used to setup a co-culture with CD3 & CD28-stimulated CD4 T cells (MCM-CD4 T) for evaluation of either surface markers or CD4 T cell proliferation. The macrophages were used to setup a co-culture with CD3 & CD28- or CD3 only-stimulated CD4 T cells (Mac-CD4 T) on day 6 for evaluation of either surface marker modulation or effect on CD4 T cell proliferation. For Mac-CD4 T cell proliferation study, M1 or M2 macrophages were cultured with CD3 & CD28- or CD3 only-stimulated, CFSE-labeled, autologous CD4 T cells at a 1:10 ratio. T cell proliferation was measured at the end of the experiment (day 9-day 11) by flow cytometry, and results are graphically shown as CFSE-dilution peaks. The assessment of CD3-only stimulated T cells was always done on day 11. Quantitative results were reported as the Division Index (the average number of cell divisions a population underwent) calculated for each of the triplicate wells in each of the culture conditions. Culture supernatants of Mac-CD4 T co-cultures were collected for subsequent cytokine analysis.
M1 and M2 macrophages from vehicle- or β-glucan-treated whole blood were prepared as described above. […] In addition, surface expression of CD86 was enhanced as well as both protein and mRNA levels of PD-L1 (FIG. 2B).
Expression of a panel of markers was evaluated by flow cytometry for vehicle- and β-glucan-treated, high binder-derived M1 and M2 macrophages (CD163 was evaluated twice).
CD163 and CD86 were evaluated by flow cytometry for vehicle- and β-glucan-treated, low binder-derived M1 and M2 macrophages.
Phenotypic and functional evaluation of β-glucan-treated M2a and β-glucan-treated M2 macrophages in the presence of immunosuppressive cytokines was carried out. M2 or M2a macrophages were prepared as described above. On day 3, tumor-conditioned medium (TCM) was added M2 macrophage cultures to account for 70% of the volume of the culture and then evaluated for CD163 expression and functional activity on day 6. […] M2a macrophages were cultured in IL-4 as described above.
The β-glucan-treated M2a macrophages cultured in IL-4 and M2 macrophages cultured in TCM were first evaluated for CD163 and CD86 expression. CD163 and CD86 were evaluated by flow cytometry and median MFI was calculated for isotype control staining and surface antigen staining and the results are shown in Table 5.
Monocytes or M2 macrophages were prepared as described above. On day 3, TCM was added to account for 70% of the volume of the culture and then evaluated for PD-L1 expression with TCM and then again when co-cultured with CD4 T cells.

IFN-γ = IFN-γ ELISA of co-culture supernatants; assay type: cell-based, human
Description: as §1
The culture supernatants from the CFSE dilution T-cell proliferation assay (FIG. 2B) were also measured for IFN-gamma levels by ELISA. […] Thus, β-glucan affects M2 to M1 repolarization and drives anti-tumorigenic Th1 polarization.
Modulation of IFN-γ and IL-4 production of vehicle- and β-glucan-treated M2 macrophages was then evaluated. […] Thus, M2 macrophages derived from β-glucan-treated monocytes are M1-like in high binder subjects.
M2 macrophages from 4 high binders and 4 low binders were prepared and evaluated for their ability to modulate CD4 T cell proliferation. The supernatants from the various CD4 T cell proliferation conditions were measured for IFN-γ by ELISA. Results shown in FIG. 10 are representative from 4 different experiments. Fold change over the IFN-γ levels produced in the co-cultures of vehicle-treated M2 macrophages and CD4 T cells are plotted for each of the 4 donors.

IL-4 = IL-4 analysis of co-culture supernatants; assay type: cell-based, human; conditions: co-cultures of β-glucan-treated M2 macrophages and CD4 T cells
Description: CD14^+ monocytes from human whole blood were enriched using Ficoll gradient and magnetic bead separation. Enriched monocytes (5×10^5 cells per mL) were then cultured in either M1-polarizing (XVivo 10 media (Lonza Group) supplemented with 5% autologous serum and 100 ng/mL recombinant human granulocyte macrophage colony-stimulating factor (rhGM-CSF) (R&D Systems) or M2-polarizing (XVivo 10 media supplemented with 10% autologous serum and 50 ng/mL recombinant human macrophage colony-stimulating factor (rhM-CSF) (R&D Systems) conditions for 6 days. In experiments performed to evaluate the effect of β-glucan, whole blood was first incubated with vehicle (sodium citrate buffer) or 25 μg/mL soluble β-glucan for 2 hours at 37° C. and then the monocytes were isolated and differentiated. Morphology was checked before macrophages were harvested for phenotypic analysis. […] T cell proliferation was measured at the end of the experiment (day 9-day 11) by flow cytometry, and results are graphically shown as CFSE-dilution peaks. […] Quantitative results were reported as the Division Index (the average number of cell divisions a population underwent) calculated for each of the triplicate wells in each of the culture conditions. […]
Modulation of IFN-γ and IL-4 production of vehicle- and β-glucan-treated M2 macrophages was then evaluated. […]

CD4 and CD8 T cells = assay: Allogeneic mixed lymphocyte reaction (allo-MLR) with mMoDC; assay type: cell-based, human
MiaPaCa = assay: PD-L1 upregulation in MiaPaCa tumor cells by treated M2 macrophages; assay type: cell-based
Description: β-glucan- and vehicle-treated M2 macrophages and β-glucan-treated M2 macrophages+ABA were cultured with high binder serum and low binder serum to evaluate PD-L1 expression on tumor cells.

CD33+ MDSC = assay: MDSC in peripheral blood of a case study subject treated with IMPRIME PGG; assay type: in vivo, human; conditions: post-infusion, cycle 8, day 1; within hours
Description: Blood was drawn at various times from a case study subject undergoing treatment with IMPRIME PGG and analyzed for the presence of MDSC. The first blood draw was done pre-infusion, cycle 8, day 1. […] A second blood draw was done post-infusion, cycle 8, day 1. […] The last blood sample was drawn pre-infusion, cycle 8, day 15. The CD33^+ MDSC are again present in the peripheral blood.

CD33+CD11b+ cells (MDSC) = assay: Suppression of T cell proliferation by cord blood-derived MDSC; assay type: cell-based, human; conditions: 2:1 ratio of CD8 T cells to MDSCs, vs citrate buffer
Description: In another study, human cord blood was enriched for CD34^+ cells and cultured for 9 days to produce CD33^+CD11b^+ cells (MDSC). The MDSC were then treated with soluble β-glucan or citrate buffer (control) and evaluated for their ability to suppress T cell proliferation. The T cell proliferation assay was carried out at a 2:1 ratio of CD8 T cells to treated or untreated MDSCs.

[1] = M2 macrophages cultured in TCM (70% of volume, from day 3), immunosuppressive conditions
[2] = M2 macrophages, high binder, 25 μg/mL

β(1,6)-[poly-(1,3)-D-glucopyranosyl]-poly-β(1,3)-D-glucopyranose [β-glucan]
CD86 median MFI (M2 macrophages; [1]): 2697
CD163 median MFI (M2 macrophages; [1]): 1112
CD86 median MFI (M2 macrophages; [2]): 2953
CD163 (1) median MFI (M2 macrophages; [2]): 759
CD163 (2) median MFI (M2 macrophages; [2]): 1153
CD206 median MFI (M2 macrophages; [2]): 1056
CD209 median MFI (M2 macrophages; [2]): 801
CD274 (PD-L1) median MFI (M2 macrophages; [2]): 4427
HLA-DR median MFI (M2 macrophages; [2]): 1007
CD86 median MFI (M2 macrophages; M2 macrophages, low binder): 2284
CD163 median MFI (M2 macrophages; M2 macrophages, low binder): 3315
phenotypic markers on monocyte-derived macrophages (M2 macrophages; low binders, M1/M2 polarizing conditions (data not shown)): did not modulate
surface expression of CD86 (M2 macrophages; β-glucan-treated M2 macrophages): enhanced
surface expression of PD-L1 (M2 macrophages; β-glucan-treated M2 macrophages cultured in TCM): higher surface expression
HLA-DR expression (M2 macrophages; β-glucan-treated M2 macrophages cultured in TCM (data not shown)): higher
PD-L1 expression (M2 macrophages; β-glucan-treated M2 macrophages in TCM co-cultured with CD4 T cells): increased expression
mean fluorescence intensity (MFI) of CD163 (M2 macrophages; β-glucan-treated M2 macrophages, FIG. 2A): downmodulated
protein and mRNA levels of PD-L1 (M2 macrophages; β-glucan-treated M2 macrophages, FIG. 2B): enhanced
IFN-gamma levels in culture supernatants (IFN-γ; M2 macrophage-CD4 T co-culture, FIG. 2D): concomitant increase in IFN-gamma production
IFN-γ production (IFN-γ; co-cultures of β-glucan-treated M2 macrophages and CD4 T cells, high binders): significantly increased production
IFN-γ production (IFN-γ; co-cultures under immunosuppressive conditions (TCM, IL-4), FIG. 4): significantly increased production
IFN-γ production (IFN-γ; co-cultures without exogenous CD28 antibody, FIG. 8B): significantly increased production
IFN-γ production (IFN-γ; low binder crossed-over with high binder's serum, FIG. 11B): significantly increased production
IFN-γ production (IFN-γ; β-glucan-treated M2 macrophages, low binders): nor increased IFN-γ production
production of immunosuppressive cytokine IL-4 (IL-4): no change
immunogenicity in allo-MLR (CD4 and CD8 T cell expansion) (CD4 and CD8 T cells; β-glucan-treated mMoDC from high binders): increased immunogenicity
IFN-γ production (CD4 and CD8 T cells; β-glucan-treated mMoDC from high binders vs low binders and vehicle-treated mMoDCs): able to modulate IFN-γ production
expression of PD-L1 on tumor cells (MiaPaCa; β-glucan-treated M2 macrophages with addition of ABA, low binders): also increased expression
expression of PD-L1 on tumor cells (MiaPaCa; β-glucan-treated M2 macrophages, high binders): increased expression
CD33+ MDSC in peripheral blood (CD33+ MDSC): transiently disappear
suppression of T cell proliferation by MDSC (CD33+CD11b+ cells (MDSC)): less suppressive
